# Results taken from publication PMC6331809, “Antigenotoxicity and Tumor Growing Inhibition by Leafy Brassica carinata and Sinigrin” (Molecules, 2015).
# Several values for one entry are separate records, joined by “and”; a condition that tells them apart may be missing. Equal entries are not always repeated. Where two headings read alike, the source gives them in different places. Marks after values point to notes of the source that are not given here.
# How the values were obtained:
# [1] = system: Caenorhabditis elegans; set-up: method as in PMID 19277288; settings: C. elegans, cited from earlier work
# [2] = system: hamster ovary cell line (CHO); settings: cited from earlier work
# [3] = system: Drosophila melanogaster; experiment: Toxicity in SMART: Drosophila adult survival after simple and combined (H2O2) treatment; type: in vivo; settings: for Survival, average: average over all assayed concentrations
# Protocol: Toxicity (T) was determined as percentage of survival adults with respect to 450 untreated 72 h old larvae from three independent experiments: T = (N° of emerging individuals in treatment/N° of emerging individuals in the negative control) × 100(1)
# [4] = system: Drosophila melanogaster; experiment: Antigenotoxicity in SMART, combined treatment with H2O2; type: in vivo; settings: for Large single spots > 2 cells; m = 5: mutation rate (number of spots) / Small single spots 1–2 cells; m = 2: diagnosis / Small single spots 1–2 cells; m = 2: mutation rate (number of spots) / Total spots m = 2: diagnosis / Total spots m = 2: mutation rate (number of spots) / Twin spots m = 5: mutation rate (number of spots): combined with 0.12 M H2O2; on Small single spots 1–2 cells; m = 2: diagnosis: key: + (positive); − (negative); on Total spots m = 2: diagnosis: key: + (positive); − (negative)
# Protocol: (§1) The genotoxic and antigenotoxic activity of lyophilized leaves of B. carinata and sinigrin were evaluated by the Drosophila Somatic Mutation and Recombination Test (SMART). Drosophila is a holometabolous animal which in vivo experiments permit to make analogies with humans due to the high percentage of homologue genes in common with human. […] Both characteristics make this test an optimal protocol in order to test molecules and complex mixtures with health benefices for humans. Two different D. melanogaster strains carrying visible wing genetic markers on the left arm of chromosome 3 were used: the flare (flr) strain flr^3/ln (3LR) TM3, Bd^s and the multiple wing-hair (mwh) strain mwh/mwh. These markers were selected due to their position in the Drosophila genome, covering a wide portion of one of their four chromosomes. Specifically, they affect the wing imaginal disks which present more cells with a uniform growth during larvae development than other Drosophila imaginal disks. This fact makes possible to detect easily a high number of mutations, somatic recombinations and disjunctions produced in the Drosophila DNA during all treatment periods by wing microscopic observation. In this sense, these markers are present in other genetic background (strains) but crosses produce mutations with a basal mutation rate too high and disturbing hair anomalous pattems. The marker flare (flr^3, 3_38.3) is a recessive mutation which produces individual wing hairs that are malformed. The flr^3 allele is a zygotic recessive lethal, which is maintained in the strain over the balancer chromosome TM3 (TM3, Bd^S: Third Multiple 3, Beaded-Serrate). The marker multiple wing hairs (mwh, 3_0.3) is a recessive mutation that is viable in homozygous flies, producing multiple hairs per cell instead of the wild type single-hair trichome. Two types of crosses were used: the standard cross with flr^3/TM3, Bd^S females mated to mwh/mwh males and the reciprocal cross.
# (§2) Hybrid eggs from crossing optimally fertile flies were collected over an 8-h period. Emerged larvae, 72 ± 4 h later, were cleaned up from remaining feeding medium, using sterile distilled water, and subsequently were transferred into treatment vials. These vials contained tested conditions which consisted of 0.85 g of Drosophila Instant Medium (Formula 4–24, Carolina Biological Supply, Burlington, NC, USA) wetted with 4 mL of a mixture of distilled-sterile water and the appropriate concentration of lyophilized plant or the single compound sinigrin.
# (§3) Genotoxicity/antigenotoxicity tests were performed following the standard protocol. Antigenotoxicity tests were carried out by mixing the genotoxin hydrogen peroxide (H2O2, Sigma-Aldrich) with the plant or single compound in appropriate concentrations.
# (§4) The groups consisting of approximately 100 larvae each were: (i) negative control (distilled water); (ii) mutagenic positive control (H2O2 0.12 M); (iii) 3 vials with increasing concentrations of B. carinata (1.25, 2.5, and 5 mg·mL^−1); and (iv) 4 vials with increasing concentrations of sinigrin (0.6, 1.2, 2.4 and 4.8 mM). Sinigrin concentrations were chosen on the basis of the sinigrin content of the B. carinata sample used in this study.
# (§5) Larvae were fed on both treated and control mediums until pupation (about 48 h). After emergence, resulting adult flies were collected from the treatment vials, sacrificed under CO2 narcotization and stored in a 70% ethanol solution in sterile water.
# (§6) Transheterozygous wings (mwhflr^+/mwh^+ flr^3) were mounted and wing hair mutations (spots) were scored. Both dorsal and ventral surfaces of the wings containing 22,000 cells were screened under a photonic microscope (Nikon, Amsterdam, Netherlands) at 400× magnification for the occurrence of individual spots (mwh or flr phenotype) or twin spots (mwh clone adjacent to flr clone).
# [5] = system: Drosophila melanogaster
# Protocol: as §1, §2, §3, §4, §5, §6
# [6] = system: induced hepatocarcinogenesis in rats; set-up: method as in PMID 2387027; dose or concentration left out as unconfirmed; settings: orally in a diet; cited from earlier work
# [7] = sinigrin 0.60 mM, simple treatment
# [8] = sinigrin 1.20 mM, simple treatment
# [9] = sinigrin 2.40 mM, simple treatment
# [10] = sinigrin 4.81 mM, simple treatment
smiles,measurement,setting,value
"C=CCC(=NOS(=O)(=O)O)S[C@@H]1O[C@H](CO)[C@@H](O)[C@H](O)[C@H]1O (stereo in doubt) [Sinigrin, sinigrin]",Non-toxic up to the concentration,[1],≤ 80 g/L
same,LC50,[1]; with addition of myrosinase,500 µg/mL
same,Chromosome aberrations / sister chromatid exchanges,[2]; at concentrations of 2 mg·mL^−1,induced chromosome aberrations but not sister chromatid exchanges
same,Genotoxicity and cytotoxicity,[2],neither genotoxic nor cytotoxic
same,"Survival, average",[3]; combined treatments with 0.12 M H2O2,38.11%
same,"Survival, average",[3]; simple treatments,68.27%
same,Survival,"[3]; sinigrin 0.60 mM, combined with 0.12 M H2O2",25.56 * %
same,Survival,"[3]; sinigrin 0.60 mM, combined with 0.12 M H2O2, listed as sinigrin",25.56%
same,Survival,[3]; [7],56.44 * %
same,Survival,"[3]; sinigrin 1.20 mM, combined with 0.12 M H2O2",19.33 * %
same,Survival,"[3]; sinigrin 1.20 mM, combined with 0.12 M H2O2, listed as sinigrin",19.33%
same,Survival,[3]; [8],78.22 * %
same,Survival,"[3]; sinigrin 1.20 mM, simple treatment, listed as sinigrin",78.22%
same,Survival,"[3]; sinigrin 2.40 mM, combined with 0.12 M H2O2",47.33 * %
same,Survival,[3]; [9],61.56 * %
same,Survival,"[3]; sinigrin 4.81 mM, combined with 0.12 M H2O2",60.22 * %
same,Survival,"[3]; sinigrin 4.81 mM, combined with 0.12 M H2O2, listed as sinigrin",60.22%
same,Survival,[3]; [10],76.89 * %
same,Reduction of survival,"[3]; survival average, combined (H2O2) against simple treatments",~ 30%
same,Large single spots > 2 cells; m = 5: mutation rate (number of spots),[4]; sinigrin 0.60 mM,0 spots per wing
same,Small single spots 1–2 cells; m = 2: diagnosis,[4]; sinigrin 0.60 mM,−
same,Small single spots 1–2 cells; m = 2: mutation rate (number of spots),[4]; sinigrin 0.60 mM,0.19 (6) spots per wing
same,Total spots m = 2: diagnosis,[4]; sinigrin 0.60 mM,−
same,Total spots m = 2: mutation rate (number of spots),[4]; sinigrin 0.60 mM,0.19 (6) spots per wing
same,Twin spots m = 5: mutation rate (number of spots),[4]; sinigrin 0.60 mM,0 spots per wing
same,Large single spots > 2 cells; m = 5: mutation rate (number of spots),[4]; sinigrin 1.20 mM,0 spots per wing
same,Small single spots 1–2 cells; m = 2: diagnosis,[4]; sinigrin 1.20 mM,−
same,Small single spots 1–2 cells; m = 2: mutation rate (number of spots),[4]; sinigrin 1.20 mM,0.20 (4) spots per wing
same,Total spots m = 2: diagnosis,[4]; sinigrin 1.20 mM,−
same,Total spots m = 2: mutation rate (number of spots),[4]; sinigrin 1.20 mM,0.20 (4) spots per wing
same,Twin spots m = 5: mutation rate (number of spots),[4]; sinigrin 1.20 mM,0 spots per wing
same,Large single spots > 2 cells; m = 5: mutation rate (number of spots),[4]; sinigrin 2.40 mM,0 spots per wing
same,Small single spots 1–2 cells; m = 2: diagnosis,[4]; sinigrin 2.40 mM,−
same,Total spots m = 2: diagnosis,[4]; sinigrin 2.40 mM,−
same,Twin spots m = 5: mutation rate (number of spots),[4]; sinigrin 2.40 mM,0 spots per wing
same,Percentage of inhibition of clone formation,"[4]; sinigrin 4.81 mM, against H2O2",84.61%
same,Large single spots > 2 cells; m = 5: mutation rate (number of spots),[4]; sinigrin 4.81 mM,0 spots per wing
same,Small single spots 1–2 cells; m = 2: diagnosis,[4]; sinigrin 4.81 mM,−
same,Small single spots 1–2 cells; m = 2: mutation rate (number of spots),[4]; sinigrin 4.81 mM,0.10 (1) spots per wing
same,Total spots m = 2: diagnosis,[4]; sinigrin 4.81 mM,−
same,Total spots m = 2: mutation rate (number of spots),[4]; sinigrin 4.81 mM,0.10 (1) spots per wing
same,Twin spots m = 5: mutation rate (number of spots),[4]; sinigrin 4.81 mM,0 spots per wing
same,"Total mutation rate, average","[5]; average over all doses, simple treatment",0.15 spots per wing
same,Large single spots > 2 cells; m = 5: diagnosis,[5]; [7],−
same,Large single spots > 2 cells; m = 5: mutation rate (number of spots),[5]; [7],0.03 (1) spots per wing
same,Small single spots 1–2 cells; m = 2: diagnosis,[5]; [7],−
same,Small single spots 1–2 cells; m = 2: mutation rate (number of spots),[5]; [7],0.18 (7) spots per wing
same,Total spots m = 2: diagnosis,[5]; [7],−
same,Total spots m = 2: mutation rate (number of spots),[5]; [7],0.20 (8) spots per wing
same,Twin spots m = 5: mutation rate (number of spots),[5]; [7],0 spots per wing
same,Large single spots > 2 cells; m = 5: diagnosis,[5]; [8],−
same,Large single spots > 2 cells; m = 5: mutation rate (number of spots),[5]; [8],0.03 (1) spots per wing
same,Small single spots 1–2 cells; m = 2: diagnosis,[5]; [8],−
same,Small single spots 1–2 cells; m = 2: mutation rate (number of spots),[5]; [8],0.12 (4) spots per wing
same,Total spots m = 2: diagnosis,[5]; [8],−
same,Total spots m = 2: mutation rate (number of spots),[5]; [8],0.18 (6) spots per wing
same,Twin spots m = 5: diagnosis,[5]; [8],−
same,Twin spots m = 5: mutation rate (number of spots),[5]; [8],0.03 (1) spots per wing
same,Large single spots > 2 cells; m = 5: diagnosis,[5]; [9],−
same,Large single spots > 2 cells; m = 5: mutation rate (number of spots),[5]; [9],0.03 (1) spots per wing
same,Small single spots 1–2 cells; m = 2: diagnosis,[5]; [9],−
same,Small single spots 1–2 cells; m = 2: mutation rate (number of spots),[5]; [9],0.08 (3) spots per wing
same,Total spots m = 2: diagnosis,[5]; [9],−
same,Total spots m = 2: mutation rate (number of spots),[5]; [9],0.11 (4) spots per wing
same,Twin spots m = 5: mutation rate (number of spots),[5]; [9],0 spots per wing
same,Large single spots > 2 cells; m = 5: mutation rate (number of spots),[5]; [10],0 spots per wing
same,Small single spots 1–2 cells; m = 2: diagnosis,[5]; [10],−
same,Small single spots 1–2 cells; m = 2: mutation rate (number of spots),[5]; [10],0.14 (4) spots per wing
same,Total spots m = 2: diagnosis,[5]; [10],−
same,Total spots m = 2: mutation rate (number of spots),[5]; [10],0.14 (4) spots per wing
same,Twin spots m = 5: mutation rate (number of spots),[5]; [10],0 spots per wing
same,Effect on induced hepatocarcinogenesis,[6],able to inhibit induced hepatocarcinogenesis
"OO [H2O2, hydrogen peroxide, reference compound]",Survival,"[3]; H2O2 0.12 M, simple treatment, emerged adults vs H2O control",37.78% and 37.78 * %
same,Large single spots > 2 cells; m = 5: diagnosis,[5]; in vivo,−
same,Large single spots > 2 cells; m = 5: mutation rate (number of spots),[5]; in vivo,0.07 (11) spots per wing
same,Small single spots 1–2 cells; m = 2: diagnosis,[5]; in vivo,+
same,Small single spots 1–2 cells; m = 2: mutation rate (number of spots),[5]; in vivo,0.60 (94) spots per wing
same,Total spots m = 2: diagnosis,[5]; in vivo,+
same,Total spots m = 2: mutation rate (number of spots),[5]; in vivo,0.65 (109) spots per wing
same,Twin spots m = 5: diagnosis,[5]; in vivo,−
same,Twin spots m = 5: mutation rate (number of spots),[5]; in vivo,0.06 (4) spots per wing
"C=CCN=C=S [AITC, allyl-ITCs, reference compound]",Lethal concentration value,[1],0.04 g/L
same,Genotoxicity,[2]; at high cytotoxic doses,not genotoxic
